Source: patent publication US7435837B2, “Dihydrobenzofuranyl alkanamine derivatives and methods for using same” (Wyeth, priority 2003, dated 2008)
Structures can show the parent of a compound that is named as a salt.

**Q.** Which melting point does the source give for CCNCC1Cc2cccc(-c3c(Cl)cccc3Cl)c2O1 (racemic) (as salt: hydrochloride) [Example 390, (±)-N-{[7-(2,6-dichlorophenyl)-2,3-dihydro-1-benzofuran-2-yl]methyl}ethanamine] here?
**A.** 195 to 197 °C

**Q.** For NCC1Cc2cc(Cl)cc(-c3ccsc3)c2O1 (single isomer, unassigned; (-)) (as salt: hydrobromid) [Example 91, (−)-(5-chloro-7-thien-3-yl-2,3-dihydro-1-benzofuran-2-yl)methylamine], which melting point is on record?
**A.** 277 to 280 °C

**Q.** With CC(C)c1cccc2c1OC(CN)C2 (racemic) (as salt: hydrochloride) [Example 18, (±)-(7-isopropyl-2,3-dihydro-1-benzofuran-2-yl)methylamine] as the compound, how does the melting point read?
**A.** 160 to 164 °C (dec.)

**Q.** With COc1ccc(-c2cccc3c2OC(CN)C3)cc1 (single isomer, unassigned; (+)) (as salt: hydrochloride) [Example 80, (+)-1-[7-(4-methoxyphenyl)-2,3-dihydro-1-benzofuran-2-yl]methanamine] as the compound, how does the melting point read?
**A.** 183 to 186 °C

**Q.** With NCC1Cc2c(F)c(F)cc(-c3ccccc3)c2O1 (racemic) (as salt: hydrochloride) [Example 109, (±)-(4,5-difluoro-7-phenyl-2,3-dihydro-1-benzofuran-2-yl)methylamine] as the compound, how does the melting point read?
**A.** > 240 °C

**Q.** For NCC1Cc2cccc(/C=C/c3ccccc3)c2O1 (racemic) (as salt: hydrochloride) [Example 119, (±)-1-{7-[(E)-2-phenylvinyl]-2,3-dihydro-1-benzofuran-2-yl}methanamine], which melting point is on record?
**A.** 209 to 211 °C

**Q.** Which melting point does the source give for NCC1Cc2cccc(-c3cccc(C(F)(F)F)c3)c2O1 (racemic) (as salt: hydrochloride) [Example 69, (±)-1-{7-[3-(trifluoromethyl)phenyl]-2,3-dihydro-1-benzofuran-2-yl}methanamine] here?
**A.** 172 to 174 °C

**Q.** With NCC1Cc2cccc(CCc3ccccc3)c2O1 (racemic) (as salt: hydrochloride) [Example 120, (±)-1-[7-(2-phenylethyl)-2,3-dihydro-1-benzofuran-2-yl]methanamine] as the compound, how does the melting point read?
**A.** 155 to 157 °C

**Q.** Which melting point does the source give for CC(C)(C)/C=C/c1cccc2c1OC(CN)C2 (racemic) (as salt: hydrochloride) [Example 117, (±)-1-{7-[(1E)-3,3-dimethylbut-1-enyl]-2,3-dihydro-1-benzofuran-2-yl}methanamine] here?
**A.** 216 to 218 °C

**Q.** For NCC1Cc2cccc(-c3ccc(F)cc3)c2O1 (single isomer, unassigned; (+)) (as salt: hydrobromid) [Example 74, (+)-1-[7-(4-fluorophenyl)-2,3-dihydro-1-benzofuran-2-yl]methanamine], which melting point is on record?
**A.** 207 to 208 °C

**Q.** With COc1ccc(-c2cccc3c2OC(CN)C3)cc1 (racemic) (as salt: hydrochloride) [Example 79, (±)-1-[7-(4-methoxyphenyl)-2,3-dihydro-1-benzofuran-2-yl]methanamine] as the compound, how does the melting point read?
**A.** 176 to 178 °C

**Q.** With COc1cccc(-c2cccc3c2OC(CN)C3)c1 (racemic) (as salt: hydrochloride) [Example 68, (±)-1-[7-(3-methoxyphenyl)-2,3-dihydro-1-benzofuran-2-yl]methanamine] as the compound, how does the melting point read?
**A.** 152 to 154 °C

**Q.** For NCC1Cc2cc(Cl)cc(-c3ccccc3)c2O1 (single isomer, unassigned; (+)) (as salt: hydrobromid) [Example 85, (+)-1-(5-chloro-7-phenyl-2,3-dihydro-1-benzofuran-2-yl)methanamine], which melting point is on record?
**A.** 201 to 203 °C

**Q.** Which melting point does the source give for Cc1cc2c(c(-c3ccccc3)c1)OC(CN)C2 (racemic) (as salt: hydrochloride) [Example 281, (±)-{[(5-methyl-7-phenyl-2,3-dihydro-1-benzofuran-2-yl)methyl]amine] here?
**A.** 227 to 228 °C

**Q.** With NCC1Cc2cccc(-c3ccccc3F)c2O1 (single isomer, unassigned; (-)) (as salt: hydrochloride) [Example 52, (−)-1-[7-(2-fluorophenyl)-2,3-dihydro-1-benzofuran-2-yl]methanamine] as the compound, how does the melting point read?
**A.** 224 to 225 °C

**Q.** For COc1cc(Cl)cc2c1OC(CN)C2 (racemic) (as salt: hydrochloride) [Example 111, (±)-1-(5-chloro-7-methoxy-2,3-dihydro-1-benzofuran-2-yl)methanamine], which melting point is on record?
**A.** 195 to 198 °C

**Q.** Which melting point does the source give for NCC1Cc2cc(Cl)cc(-c3ccccc3)c2O1 (racemic) (as salt: hydrochloride) [Example 84, (±)-1-(5-chloro-7-phenyl-2,3-dihydro-1-benzofuran-2-yl)methanamine] here?
**A.** 258 °C (dec.)

**Q.** Which melting point does the source give for NCC1Cc2cc(Cl)cc(C3CCCCC3)c2O1 (racemic) (as salt: hydrochloride) [Example 11, (±)-(5-chloro-7-cyclohexyl-2,3-dihydro-1-benzofuran-2-yl)methylamine] here?
**A.** 210 to 213 °C

**Q.** With Cc1cccc(-c2cccc3c2OC(CN)C3)c1 (racemic) (as salt: hydrochloride) [Example 41, (±)-1-[7-(3-methylphenyl)-2,3-dihydro-1-benzofuran-2-yl]methanamine] as the compound, how does the melting point read?
**A.** > 210 °C (dec.)

**Q.** With NCC1Cc2cccc(-c3ccc(F)cc3)c2O1 (single isomer, unassigned; (-)) (as salt: hydrobromid) [Example 75, (−)-1-[7-(4-fluorophenyl)-2,3-dihydro-1-benzofuran-2-yl]methanamine] as the compound, how does the melting point read?
**A.** 208 to 210 °C

**Q.** Which melting point does the source give for COc1ccc(-c2cccc3c2OC(CN)C3)c(OC)c1 (single isomer, unassigned; (-)) (as salt: hydrochloride) [Example 144, (−)-1-[7-(2,4-dimethoxyphenyl)-2,3-dihydro-1-benzofuran-2-yl]methanamine] here?
**A.** 166 to 168 °C

**Q.** For NCC1Cc2cccc(-c3ccc(Cl)cc3)c2O1 (single isomer, unassigned; (-)) (as salt: hydrobromid) [Example 78, (−)-1-[7-(4-chlorophenyl)-2,3-dihydro-1-benzofuran-2-yl]methanamine], which melting point is on record?
**A.** 233 to 235 °C

**Q.** For NCC1Cc2cccc(-c3ccccc3C(F)(F)F)c2O1 (single isomer, unassigned; (+)) (as salt: hydrochloride) [Example 55, (+)-1-{7-[2-(trifluoromethyl)phenyl]-2,3-dihydro-1-benzofuran-2-yl}methanamine], which melting point is on record?
**A.** 97 to 100 °C

**Q.** With NCC1Cc2c(cccc2-c2ccccc2)O1 (racemic) (as salt: hydrochloride) [Example 1, (±)-1-(4-phenyl-2,3-dihydro-1-benzofuran-2-yl)methanamine] as the compound, how does the melting point read?
**A.** 229 to 230 °C

**Q.** Which melting point does the source give for NCC1Cc2ccc(Cl)c(-c3ccccc3Cl)c2O1 (racemic) (as salt: hydrochloride) [Example 400, (±)-{[6-chloro-7-(2-chlorophenyl)-2,3-dihydro-1-benzofuran-2-yl]methyl}amine] here?
**A.** 221 to 223 °C

**Q.** Which melting point does the source give for NCC1Cc2cccc(-c3cccc(Cl)c3)c2O1 (single isomer, unassigned; (-)) (as salt: hydrobromid) [Example 67, (−)-1-[7-(3-chlorophenyl)-2,3-dihydro-1-benzofuran-2-yl]methanamine] here?
**A.** 189 to 190 °C
